Experimental data published in patent publication US6764855B2, “Fluorescent hplc assay for 20-hete and other p-450 metabolites of arachidonic acid” (MCW Research Foundation, priority 2000, dated 2004).

Columns and labels:
[1] = test system: urinary excretion of 20-HETE; assay: Effect of an irreversible P-450 inhibitor on the urinary excretion of 20-HETE; format: in vivo, rats; conditions: ABT 50 mg/kg ip, second 50 mg/kg injection 12 h later, 24-h urine vs control
Method: To label the fatty acids, we resuspended samples, which were extracted and dried under argon, in 20 μl of acetonitrile containing 36.4 mM 2-(2,3-naphthalimino)ethyl trifluoromethanesulfonate. N,N-diisopropylethylamine (10 μl) was added to catalyze the reaction. The sample was reacted for 30 min at room temperature. The reactions were dried down under argon, resuspended in 1 ml of 20% acetonitrile:water, and applied to a Sep-Pak Vac column. The column was washed with 6 ml of 50% acetonitrile:water solution to remove unreacted dye and eluted with 500 μl of ethyl acetate. The eluent was dried under argon, and the samples were resuspended in 100 μl of the IPLC mobile phase (methanol:water:acetic acid, 82:18:0.1 vol/vol/vol). […] Fluorescence intensity was continuously monitored using a fluorescence detector (model L-7480; Hitachi, Naperville, Ill.) at a medium gain sensitivity. The amount of 20-HETE in the sample was determined by comparing the area of the 20-HETE peak to that of an internal standard. […]
SHR and normotensive Sprague-Dawley rats were placed in special metabolic cages (model 650-00350; Nalgene, Rochester, N.Y.) that efficiently separated urine from food and feces and were allowed to equilibrate for 5 days. […] The radioactive products were monitored using a radioactive flow detector (model 120; Radiomatic Instrument, Tampa, Fla.).

P-4504A enzyme = P-4504A enzyme activity (20-HETE production) in renal cortical microsomes from treated rats; format: in vivo
From the text: SHR and normotensive Sprague-Dawley rats were placed in special metabolic cages (model 650-00350; Nalgene, Rochester, N.Y.) that efficiently separated urine from food and feces and were allowed to equilibrate for 5 days. After 5 days, the food was withdrawn from the rat to prevent contamination of the urine sample and a 24-h control urine sample was collected on dry ice. After the control sample was collected, food was returned to the rats, and after a 2-day recovery period, the rats received an intraperitoneal injection of ABT (50 mg/kg) followed by a second (50 mg/kg) injection 12 h later. Two hours after administration of the first dose of ABT, food was withdrawn and a 24-h experimental urine sample was collected on dry ice. After the urine was collected, the rats were killed with pentobarbital sodium (100 mg/kg ip), and the kidneys were collected. The renal cortex was separated from the renal medulla, frozen in liquid nitrogen, and stored overnight for measurement of the renal metabolism of AA. Briefly, the renal cortex was homogenized in a 10 mM potassium phosphate buffer (pH 7.7) containing 250 mM sucrose, 1 mM EDTA, and 10 mM magnesium chloride, and microsomes were prepared by differential centrifugation. […] The radioactive products were monitored using a radioactive flow detector (model 120; Radiomatic Instrument, Tampa, Fla.).

20-HETE production by renal cortical microsomes (P-4504A enzyme; microsomes from kidneys of ABT-treated SHR (n=4), vehicle 459±192): 12±4 pmol●min^−1●mg^−1
20-HETE production by renal cortical microsomes (P-4504A enzyme; microsomes from kidneys of ABT-treated Sprague-Dawley rats (n=5), vehicle 324±25): 25±3 pmol●min^−1●mg^−1
SMILES: Nn1nnc2ccccc21 [ABT, 1-aminobenzotriazole]
fall in urinary excretion of 20-HETE after administration of ABT ([1]; SHR (n=4)): 65±10%
fall in urinary excretion of 20-HETE after administration of ABT ([1]; Sprague-Dawley rats (n=5)): 74±9%
